Counter-ions that a name gives are not always drawn.
Columns and labels:
[1] = system: bleomycin-induced lung fibrosis; experiment: Bleomycin-induced lung fibrosis model; type: in vivo, mice; settings: therapeutic mode; Compound 1 3 mg/kg BID; pirfenidone 100 mg/kg BID; nintedanib 50 mg/kg QD, oral gavage
Protocol: The reduction of lung fibrosis upon MCT4 inhibition is coupled with changes in serum metabolites that indicates turnover of extracellular matrix protein and increased fatty acid oxidation. […] The effects of Compound 1, alone or in combination with approved IPF drugs pirfenidone or nintedanib, were studied in the bleomycin-induced lung fibrosis model in therapeutic mode. Compound 1 was dosed at 3 mg/kg, BID; pirfenidone was dosed at 100 mg/kg, BID; and nintedanib was dosed at 50 mg/kg, QD, all via oral gavage.

[2] = Kinetic solubility in biorelevant media; type: physicochemical; settings: for solubility at 1 h / solubility at 4 h / solubility at 24 h: thermodynamic from solid; for solubility at 1 h: t = 1 hour; for solubility at 4 h: t = 4 hours; for solubility at 24 h: t = 24 hours
[3] = Dynamic vapor sorption (DVS); type: physicochemical; settings: 25° C.
Source text: The Form B tris salt is an off-white crystalline powder consisting of small particles. […] (ΔH=111 J/g).

[4] = Solid-state stability of API, 2 weeks storage; type: physicochemical
Protocol: Stability of the solid API was assessed after storage at the following conditions for 2 weeks: • 25° C./58% RH (closed) • 25° C./58% RH (open) • 40° C./75% RH (closed) • 40° C./75% RH (open) • 80° C./ambient RH (closed)

[5] = fasted-state simulated gastric fluid (FaSSGF), fassgf or other biorelevant, FaSSGF pH 1.6, room temperature
[6] = fasted-state simulated intestinal fluid (FaSSIF), FaSSIF #2 pH 6.5, room temperature
[7] = fed-state simulated intestinal fluid (FeSSIF), FeSSIF #2 pH 5.8, room temperature

With `COC(=O)c1ccc2c(c1)NC(=O)/C2=C(\Nc1ccc(N(C)C(=O)CN2CCN(C)CC2)cc1)c1ccccc1` [nintedanib, reference compound] the “Additive effect upon Ashcroft Score or αSMA quantitation when added to Compound 1” value [1] was “did not produce a statistically significant additive effect”.

With `Cc1ccc(=O)n(-c2ccccc2)c1` [pirfenidone, reference compound] the “Additive effect upon Ashcroft Score or αSMA quantitation when added to Compound 1” value [1] was “did not produce a statistically significant additive effect”.

For `CC(C)(OCc1cc(-c2cccc(OC3CCC3)c2)n(-c2ccccc2N2CCC2)n1)C(=O)O` [tris salt Form B], the Solubility description ([2]; FaSSGF after 1, 4 and 24 hours) was “practically insoluble”, the solubility at 1 h [2, 5] was 0.46 µg/mL and the solubility at 4 h [2, 5] was 0.35 µg/mL. It also gave a solubility at 24 h [2, 5] of 0.39 µg/mL, a solubility ([2]; fasted-state simulated intestinal fluid (FaSSIF), pH 6.5, thermodynamic from solid, FaSSIF, before gradual decrease, read-out: Solubility, initial) of no less than 3000 µg/mL and a solubility at 1 h [2, 6] of 1110 µg/mL. For the same compound, the solubility at 4 h [2, 6] was 851 µg/mL, the solubility at 24 h [2, 6] was 733 µg/mL and the solubility kinetic ([2]; fed-state simulated intestinal fluid (FeSSIF), pH 5.8, thermodynamic from solid, FeSSIF, before precipitation, read-out: Kinetic solubility, initially in solution) was no less than 3000 µg/mL. It also gave a solubility at 1 h [2, 7] of 99 µg/mL, a solubility at 4 h [2, 7] of 96 µg/mL and a solubility at 24 h [2, 7] of 95 µg/mL. For the same compound, the Hygroscopicity ([3]; 5 to 95% RH) was “non-hygroscopic”, the Weight change ([3]; between 5 and 95% RH) was “approximately 0.1%” and the Content ([4]; 25° C. - 58% RH (c), 2 weeks) was 101.1 % w/w. The “Impurity RRT 0.60” value ([4]; 25° C. - 58% RH (c), 2 weeks) was less than 0.05 % area, the “Impurity RRT 0.86” value ([4]; 25° C. - 58% RH (c), 2 weeks) was less than 0.05 % area and the “Impurity RRT 0.89” value ([4]; 25° C. - 58% RH (c), 2 weeks) was less than 0.05 % area. The “Impurity RRT 0.92” value ([4]; 25° C. - 58% RH (c), 2 weeks) was 0.13 % area, the “Impurity RRT 1.21” value ([4]; 25° C. - 58% RH (c), 2 weeks) was less than 0.05 % area and the “Main Peak” value ([4]; 25° C. - 58% RH (c), 2 weeks) was 99.78 % Area. For the same compound, the “Total Impurities” value ([4]; 25° C. - 58% RH (c), 2 weeks) was 0.22 % area, the XRPD ([4]; 25° C. - 58% RH (c), 2 weeks) was “Consistent with Tris salt (Grp B)” and the Content ([4]; 25° C. - 58% RH (o), 2 weeks) was 101.0 % w/w. The “Impurity RRT 0.60” value ([4]; 25° C. - 58% RH (o), 2 weeks) was less than 0.05 % area, the “Impurity RRT 0.86” value ([4]; 25° C. - 58% RH (o), 2 weeks) was less than 0.05 % area and the “Impurity RRT 0.89” value ([4]; 25° C. - 58% RH (o), 2 weeks) was less than 0.05 % area. For the same compound, the “Impurity RRT 0.92” value ([4]; 25° C. - 58% RH (o), 2 weeks) was 0.13 % area, the “Impurity RRT 1.21” value ([4]; 25° C. - 58% RH (o), 2 weeks) was less than 0.05 % area and the “Main Peak” value ([4]; 25° C. - 58% RH (o), 2 weeks) was 99.78 % Area. The “Total Impurities” value ([4]; 25° C. - 58% RH (o), 2 weeks) was 0.22 % area, the XRPD ([4]; 25° C. - 58% RH (o), 2 weeks) was “Consistent with Tris salt (Grp B)” and the “Chemical or physical changes on storage” value ([4]; 25° C./58% RH, 40° C./75% RH (closed and open), 80° C./ambient RH (closed), 2 weeks) was “No significant chemical or physical changes were observed”. For the same compound, the Content ([4]; 40° C. - 75% RH (c), 2 weeks) was 101.3 % w/w, the “Impurity RRT 0.60” value ([4]; 40° C. - 75% RH (c), 2 weeks) was less than 0.05 % area and the “Impurity RRT 0.86” value ([4]; 40° C. - 75% RH (c), 2 weeks) was less than 0.05 % area. For the same compound, the “Impurity RRT 0.89” value ([4]; 40° C. - 75% RH (c), 2 weeks) was less than 0.05 % area, the “Impurity RRT 0.92” value ([4]; 40° C. - 75% RH (c), 2 weeks) was 0.13 % area and the “Impurity RRT 1.21” value ([4]; 40° C. - 75% RH (c), 2 weeks) was less than 0.05 % area. For the same compound, the “Main Peak” value ([4]; 40° C. - 75% RH (c), 2 weeks) was 99.75 % Area, the “Total Impurities” value ([4]; 40° C. - 75% RH (c), 2 weeks) was 0.25 % area and the XRPD ([4]; 40° C. - 75% RH (c), 2 weeks) was “Consistent with Tris salt (Grp B)”. For the same compound, the Content ([4]; 40° C. - 75% RH (o), 2 weeks) was 101.1 % w/w, the “Impurity RRT 0.60” value ([4]; 40° C. - 75% RH (o), 2 weeks) was less than 0.05 % area and the “Impurity RRT 0.86” value ([4]; 40° C. - 75% RH (o), 2 weeks) was less than 0.05 % area. For the same compound, the “Impurity RRT 0.89” value ([4]; 40° C. - 75% RH (o), 2 weeks) was less than 0.05 % area, the “Impurity RRT 0.92” value ([4]; 40° C. - 75% RH (o), 2 weeks) was 0.13 % area and the “Impurity RRT 1.21” value ([4]; 40° C. - 75% RH (o), 2 weeks) was less than 0.05 % area. For the same compound, the “Main Peak” value ([4]; 40° C. - 75% RH (o), 2 weeks) was 99.77 % Area, the “Total Impurities” value ([4]; 40° C. - 75% RH (o), 2 weeks) was 0.23 % area and the XRPD ([4]; 40° C. - 75% RH (o), 2 weeks) was “Consistent with Tris salt (Grp B)”. The Content ([4]; 80° C. (c), 2 weeks) was 101.0 % w/w, the “Impurity RRT 0.60” value ([4]; 80° C. (c), 2 weeks) was less than 0.05 % area and the “Impurity RRT 0.86” value ([4]; 80° C. (c), 2 weeks) was less than 0.05 % area. The “Impurity RRT 0.89” value ([4]; 80° C. (c), 2 weeks) was less than 0.05 % area, the “Impurity RRT 0.92” value ([4]; 80° C. (c), 2 weeks) was 0.13 % area and the “Impurity RRT 1.21” value ([4]; 80° C. (c), 2 weeks) was less than 0.05 % area. The “Main Peak” value ([4]; 80° C. (c), 2 weeks) was 99.75 % Area, the “Total Impurities” value ([4]; 80° C. (c), 2 weeks) was 0.25 % area and the XRPD ([4]; 80° C. (c), 2 weeks) was “Consistent with Tris salt (Grp B)”. For the same compound, the Content ([4]; Initial) was 101.2 % w/w, the “Impurity RRT 0.60” value ([4]; Initial) was less than 0.05 % area and the “Impurity RRT 0.86” value ([4]; Initial) was less than 0.05 % area. The “Impurity RRT 0.89” value ([4]; Initial) was less than 0.05 % area, the “Impurity RRT 0.92” value ([4]; Initial) was 0.13 % area and the “Impurity RRT 1.21” value ([4]; Initial) was less than 0.05 % area. The “Main Peak” value ([4]; Initial) was 99.81 % Area, the “Total Impurities” value ([4]; Initial) was 0.19 % area and the XRPD ([4]; Initial) was “Consistent with Tris salt (Grp B)”.

— patent US20250179049A1, “SALTS OF HETEROCYCLIC INHIBITORS OF MONOCARBOXYLATE TRANSPORTER 4 FOR THE TREATMENT OF DISEASE” (Vettore, LLC, priority 2022, published 2025)
